Laboratory results: publication PMC8305717, “4-Phenethyl-1-Propargylpiperidine-Derived Dual Inhibitors of Butyrylcholinesterase and Monoamine Oxidase B” (Molecules, 2021)
Where “and” joins values, the source holds several entries; their conditions need not be identical. Identical values can stand only once. Entries after “also recorded” stand apart in the source; their conditions may differ.

How the values were obtained:
[1] = target: T1, hMAO-B (Homo sapiens, UniProt P27338); assay: HRP-Amplex Red coupled fluorimetric assay, hMAO-B; type: biochemical; details: 15 min incubation at 37 °C; 3 independent experiments; read-out: IC50 ± SEM, hMAO-B
T1 construct: purchased Sigma Aldrich; host or cells: BTI-TN-5B1-4 insect cells
T1 sequence (P27338 1-520): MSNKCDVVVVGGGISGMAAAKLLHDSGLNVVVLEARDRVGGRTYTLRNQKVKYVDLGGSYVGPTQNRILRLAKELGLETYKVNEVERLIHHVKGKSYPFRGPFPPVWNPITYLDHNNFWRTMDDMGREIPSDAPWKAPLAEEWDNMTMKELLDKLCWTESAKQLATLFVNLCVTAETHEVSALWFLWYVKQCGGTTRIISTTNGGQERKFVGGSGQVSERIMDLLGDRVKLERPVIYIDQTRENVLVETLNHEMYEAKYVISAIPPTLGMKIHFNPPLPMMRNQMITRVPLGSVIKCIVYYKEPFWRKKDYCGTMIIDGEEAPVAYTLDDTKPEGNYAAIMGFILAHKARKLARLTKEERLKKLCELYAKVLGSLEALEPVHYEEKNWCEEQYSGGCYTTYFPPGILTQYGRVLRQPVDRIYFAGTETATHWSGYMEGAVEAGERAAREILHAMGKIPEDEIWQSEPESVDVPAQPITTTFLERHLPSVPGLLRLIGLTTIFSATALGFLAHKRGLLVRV
Protocol: (§1) Inhibitory potencies against human (h)AChE and hBChE were determined using the Ellman method and inhibitory potencies against hMAO-A and hMAO-B were determined with horseradish peroxidase (HRP)-Amplex Red coupled assay.
(§2) The effects of the test compounds on hMAO were investigated using a fluorimetric assay. Recombinant hMAO, expressed in BTI-TN-5B1-4 insect cells, p-tyramine hydrochloride, and horse-radish peroxidase type II were purchased from Sigma Aldrich, whereas Amplex Red was synthesized as reported previously.
(§3) In brief, 100 µL 50 mM sodium phosphate buffer (pH 7.4, 0.05 vol.% Triton X-114) containing the compounds or the reference inhibitors and hMAO were incubated for 15 min at 37 °C. The reaction was started by adding Amplex Red (final concentration, 250 µM), horseradish peroxidase (final activity, 2 U/mL), and p-tyramine (final concentration, 1 mM). The fluorescence increase (λex = 530 nm, λem = 590 nm) at 37 °C was monitored for 20 min. DMSO was used for control experiments. To determine the blank value (b), phosphate-buffered solution replaced the enzyme. Each measurement was performed in duplicate. The inhibitory potencies were expressed as the residual activities (RA) and IC50 values as described in Section 3.2.1. For the reversibility assay, the previously described protocol was followed.

[2] = target: T2, hAChE (Homo sapiens, UniProt P22303); assay: Ellman method cholinesterase assay, hAChE; type: biochemical; details: residual activity at 100 µM compound; 5-min pre-incubation; RA above 50% considered inactive; read-out: RA ± SD (%) at 100 µM, hAChE
T2 construct: gift from Xavier Brazzolotto, Florian Nachon and José Dias (IRBA, Brétigny-sur-Orge, France)
T2 sequence (P22303 32-614): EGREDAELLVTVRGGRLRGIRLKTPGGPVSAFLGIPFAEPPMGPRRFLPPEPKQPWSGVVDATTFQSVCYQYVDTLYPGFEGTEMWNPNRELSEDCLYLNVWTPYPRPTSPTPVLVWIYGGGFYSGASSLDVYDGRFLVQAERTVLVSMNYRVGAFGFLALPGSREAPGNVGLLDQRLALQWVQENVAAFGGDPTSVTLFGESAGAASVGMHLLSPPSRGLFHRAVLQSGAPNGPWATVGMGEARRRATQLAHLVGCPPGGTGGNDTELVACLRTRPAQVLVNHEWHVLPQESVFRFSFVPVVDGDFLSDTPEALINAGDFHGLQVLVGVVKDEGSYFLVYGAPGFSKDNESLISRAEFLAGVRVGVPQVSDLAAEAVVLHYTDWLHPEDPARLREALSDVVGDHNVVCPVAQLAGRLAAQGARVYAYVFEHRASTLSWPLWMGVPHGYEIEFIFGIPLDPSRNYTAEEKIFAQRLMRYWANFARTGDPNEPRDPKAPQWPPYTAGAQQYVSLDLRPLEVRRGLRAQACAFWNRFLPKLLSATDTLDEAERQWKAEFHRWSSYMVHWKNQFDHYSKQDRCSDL
Protocol: as §1
(§4) The inhibitory potencies of the compounds against the ChEs were determined using the Ellman method. 5,5′-Dithiobis (2-nitrobenzoic acid) (Ellman’s reagent; DTNB, St. Louis, MO, USA), butyrylthiocholine iodide, and acetylthiocholine iodides were from Sigma-Aldrich. Recombinant hAChE and hBChE at the stock concentration of 16.5 mg/mL and 14.5 mg/mL, respectively, were kindly donated by Xavier Brazzolotto, Florian Nachon, and José Dias (IRBA, Brétigny-sur-Orge, France). The enzyme solutions were prepared by dilution of the concentrated stocks in 0.1 M phosphate-buffered solution (pH 8.0). The reactions were carried out in a final volume of 300 µL of 0.1 M phosphate-buffered solution, pH 8.0, containing 370 µM DTNB, 500 μM butyrylthiocholine/acetylthiocholine, and approximately 1 nM or 50 pM hBChE or hAChE, respectively. The reactions were started by the addition of the substrate after 5-min pre-incubation at room temperature. For time-dependency measurements of hBChE inhibition, the pre-incubation time was varied (i.e., 1 min, 5 min, 15 min, 30 min). The final content of the organic solvent (DMSO) was always 1%. The formation of the yellow 5-thio-2-nitrobenzoate anion as a result of the reaction of DTNB with the thiocholines was monitored for 1 min as the change in absorbance at 412 nm, using a 96-well microplate reader (SynergyTM H4; BioTek Instruments, Inc., USA). The initial velocities in the presence (vi) and the absence (vo) of the test compounds were calculated. The inhibitory potencies were expressed as the residual activities, according to RA = (vi − b)/(vo − b), where b is the blank value using phosphate buffer without ChEs. […] The IC50 values were obtained by plotting the residual ChEs activities against the applied inhibitor concentrations, with the experimental data fitted to a four-parameter logistic function (GraphPad Prism 9.0; GraphPad Software Inc., San Diego, CA, USA).

[3] = target: T3, hMAO-A (Homo sapiens, UniProt P21397); assay: HRP-Amplex Red coupled fluorimetric assay, hMAO-A; type: biochemical; details: 15 min incubation at 37 °C; for IC50: 3 independent experiments, read-out: IC50 ± SEM, hMAO-A; for remaining activity at 100 µM: 0.25 h, residual activity at 100 µM compound, RA above 50% considered inactive, read-out: RA ± SD (%) at 100 µM, hMAO-A
T3 construct: purchased Sigma Aldrich; host or cells: BTI-TN-5B1-4 insect cells
T3 sequence (P21397 1-527): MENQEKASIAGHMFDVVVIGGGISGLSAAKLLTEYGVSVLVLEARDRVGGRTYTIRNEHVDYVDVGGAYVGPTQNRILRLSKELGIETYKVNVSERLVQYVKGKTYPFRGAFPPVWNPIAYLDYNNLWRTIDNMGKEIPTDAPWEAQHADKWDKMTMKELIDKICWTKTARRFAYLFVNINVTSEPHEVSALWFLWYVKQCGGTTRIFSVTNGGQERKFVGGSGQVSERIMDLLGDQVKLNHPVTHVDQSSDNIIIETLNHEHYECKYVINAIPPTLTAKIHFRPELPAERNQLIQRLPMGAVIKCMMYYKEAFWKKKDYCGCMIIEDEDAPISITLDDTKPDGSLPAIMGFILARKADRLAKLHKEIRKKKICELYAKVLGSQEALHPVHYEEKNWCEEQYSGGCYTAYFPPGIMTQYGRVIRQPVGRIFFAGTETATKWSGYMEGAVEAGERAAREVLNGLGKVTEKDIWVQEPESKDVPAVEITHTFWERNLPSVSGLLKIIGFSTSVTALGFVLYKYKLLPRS
Protocol: as §1, §2, §3

[4] = target: T4, hBChE (Homo sapiens, UniProt P06276); assay: Ellman method cholinesterase assay, hBChE; type: biochemical; details: 5-min pre-incubation; for RA ± SD (%) at 100 µM, hBChE: residual activity at 100 µM compound, RA above 50% considered inactive; for IC50: 3 independent experiments, read-out: IC50 ± SEM, hBChE
T4 construct: gift from Xavier Brazzolotto, Florian Nachon and José Dias (IRBA, Brétigny-sur-Orge, France)
T4 sequence (P06276 29-602): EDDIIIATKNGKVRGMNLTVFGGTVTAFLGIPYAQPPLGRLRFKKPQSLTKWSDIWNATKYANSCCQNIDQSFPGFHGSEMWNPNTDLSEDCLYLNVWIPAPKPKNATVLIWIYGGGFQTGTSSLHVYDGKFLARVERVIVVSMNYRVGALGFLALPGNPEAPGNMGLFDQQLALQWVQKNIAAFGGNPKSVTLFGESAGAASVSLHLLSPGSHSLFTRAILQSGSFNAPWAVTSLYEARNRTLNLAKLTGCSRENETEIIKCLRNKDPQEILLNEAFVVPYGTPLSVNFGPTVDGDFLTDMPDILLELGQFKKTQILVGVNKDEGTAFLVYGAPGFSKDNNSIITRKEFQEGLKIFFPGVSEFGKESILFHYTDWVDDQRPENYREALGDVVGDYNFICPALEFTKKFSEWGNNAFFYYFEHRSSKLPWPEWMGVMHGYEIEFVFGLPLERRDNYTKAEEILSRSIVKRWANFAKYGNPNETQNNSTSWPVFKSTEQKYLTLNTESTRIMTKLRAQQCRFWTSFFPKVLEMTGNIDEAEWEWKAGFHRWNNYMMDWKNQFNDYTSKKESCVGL
Protocol: as §1, §4

[5] = tested on: MAO-B; details: binds covalently to N5 of FAD, crystal complex; cited from earlier work
[6] = target: T4, hBChE; assay: hBChE time-dependency measurements (IC50 shift, varied pre-incubation time); type: biochemical; details: pre-incubation 1, 5, 15, 30 min
Protocol: as §4
Figure 7 The IC50 shift curves for compounds 13–15 during hBChE inhibition.

[7] = target: T1, hMAO-B; assay: hMAO-B 100-fold dilution reversibility assay and IC50 shift at various pre-incubation times; type: biochemical; details: for Reversibility of hMAO-B inhibition: 100-fold dilution assay; for Time-dependence of hMAO-B inhibition (IC50 shift): various pre-incubation times
Protocol: as §3
The reversibility was analyzed by one-way ANOVA and post-hoc comparisons were made using two-tailed Student’s t-test. p < 0.05—statistically significant. All data are means ± SEM (n = 2).
Figure 5 (A) A 100-fold dilution assay for hMAO-B inhibitors 12–14. L-Deprenyl was used as an irreversible inhibitor control; safinamide and isatin were used as reversible inhibitor controls. Data are mean values ± SEM (n = 2; each in quadruplicate): ∗, p < 0.05 (one-way ANOVA, with Bonferroni correction, followed by t-tests).

SMILES | IC50 [1] | remaining activity at 100 µM [2] [%] | IC50 [3] [µM] | RA ± SD (%) at 100 µM, hBChE [4] [%] | remaining activity at 100 µM [3] [%] | MAO-B inhibition, type [5] | Time-dependence of hBChE inhibition (IC50 shift) [6] | Reversibility of hMAO-B inhibition [7] | Time-dependence of hMAO-B inhibition (IC50 shift) [7] | IC50 [4]
C#CCN1CCC(/C=C/c2ccc(O)cc2)CC1 [Compound 9, (E)-4-(2-(1-(prop-2-yn-1-yl)piperidin-4-yl)vinyl)phenol] | 12.9 ± 1.1 µM | 65.9 ± 3.1 | 15.5 ± 0.9 | 64.9 ± 2.0 |  |  |  |  |  | 
C#CCN1CCC(/C=C/c2ccc(OC)cc2)CC1 [Compound 6, (E)-4-(4-methoxystyryl)-1-(prop-2-yn-1-yl)piperidine] |  | 61.9 ± 1.2 |  | 68.8 ± 0.6 | 52.6 ± 0.7 |  |  |  |  | 
C#CCN1CCC(/C=C/c2ccc(F)cc2)CC1 [A] |  |  |  |  |  | potent and irreversible MAO-B inhibitor |  |  |  | 
C#CCN1CCC(CCc2ccc(O)cc2)CC1 [Compound 10, 4-(2-(1-(prop-2-yn-1-yl)piperidin-4-yl)ethyl)phenol] |  | 61.4 ± 2.7 | 34 ± 5.8 | 53.8 ± 0.6 |  |  |  |  |  | 
C#CCN1CCC(CCc2ccc(OC(=O)N(C)CC)cc2)CC1 [Compound 14, 4-(2-(1-(prop-2-yn-1-yl)piperidin-4-yl)ethyl)phenyl ethyl(methyl)carbamate] | 0.181 ± 0.0287 µM | 66.1 ± 4.8 |  |  | 51.2 ± 1.5 |  | IC50 shift was absent | irreversible | time-dependent hMAO-B inhibition | 75.5 ± 8.4 µM
C#CCN1CCC(CCc2cccc(OC)c2)CC1 [Compound 8, 4-(3-methoxyphenethyl)-1-(prop-2-yn-1-yl)piperidine] | 0.238 ± 0.0269 µM | 73.2 ± 8.9 |  | 55.5 ± 0.2 | 59.8 ± 3.7 |  |  |  |  | 
C#CCN1CCC(CCc2cccc(O)c2)CC1 [Compound 11, 3-(2-(1-(prop-2-yn-1-yl)piperidin-4-yl)ethyl)phenol] | 52.5 ± 14.8 µM | 54.7 ± 2.9 |  | 72.9 ± 2.8 | 63.3 ± 0.4 |  |  |  |  | 
C#CCN1CCC(CCc2cccc(OC(=O)N(C)CC)c2)CC1 [Compound 15, 3-(2-(1-(prop-2-yn-1-yl)piperidin-4-yl)ethyl)phenyl ethyl(methyl)carbamate] | 4.3 µM and 8.5 µM | 60.2 ± 1.8 |  |  | 69.4 ± 9.4 |  | time-dependent inhibition |  |  | 8.5 µM and 4.3 µM
C#CCN1CCC(CCc2ccc(OC)cc2)CC1 [Compound 7, 4-(4-methoxyphenethyl)-1-(prop-2-yn-1-yl)piperidine] |  | 73.1 ± 4.3 |  | 51.2 ± 1.6 | 62.2 ± 1.8 |  |  |  |  | 
C#CCN1CCC(CCc2ccc(OC(=O)Nc3ccccc3)cc2)CC1 [Compound 12, 4-(2-(1-(prop-2-yn-1-yl)piperidin-4-yl)ethyl)phenyl phenylcarbamate] | 9.7 ± 1.2 µM | 52.2 ± 1.7 |  | 60.2 ± 1.8 | 56.7 ± 0.9 |  |  | reversible | absence of IC50 shift; also recorded: did not exhibit time-dependent inhibition | 
C#CCN1CCC(CCc2cccc(OC(=O)Nc3ccccc3)c2)CC1 [Compound 13, 3-(2-(1-(prop-2-yn-1-yl)piperidin-4-yl)ethyl)phenyl phenylcarbamate] | 23.6 ± 3 µM | 51.9 ± 1.4 |  |  | 54 ± 0.4 |  | IC50 shift was absent | reversible | absence of IC50 shift; also recorded: did not exhibit time-dependent inhibition | 4.4 ± 0.8 µM
